These compounds were tested against T1, human GPR120 (Homo sapiens, UniProt Q5NUL3) (assay: Intracellular Ca2+ assay in human GPR120 stable cell line (HEK293 co-expressing Gqi5), Flexstation). Conditions: % activity at 5 μM compared to the maximal activity of GW9508 at 6.7 μM (=100%); human GPR120 cells, Ca2+ fluorescence.
T1 construct: host or cells: HEK293 cells co-expressing Gqi5
T1 sequence (Q5NUL3 1-361): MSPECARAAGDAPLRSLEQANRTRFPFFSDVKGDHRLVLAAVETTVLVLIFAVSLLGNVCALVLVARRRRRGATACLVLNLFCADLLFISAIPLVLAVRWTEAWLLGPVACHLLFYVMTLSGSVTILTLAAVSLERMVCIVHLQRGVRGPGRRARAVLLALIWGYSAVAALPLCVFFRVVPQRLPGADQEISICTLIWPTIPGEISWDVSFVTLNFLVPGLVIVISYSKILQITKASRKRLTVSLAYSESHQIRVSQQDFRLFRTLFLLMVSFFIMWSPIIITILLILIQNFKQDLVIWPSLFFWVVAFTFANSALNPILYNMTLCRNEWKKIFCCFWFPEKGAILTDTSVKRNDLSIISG
Format: cell-based
Summary of the method: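 HEK293 cells stably co-expressing Gqi5 and Flag-tagged human GPR120, loaded with Calcium 4 dye in HBSS/HEPES pH 7.4 at 37 °C; compounds at eight concentrations, 0.00001–20 μM, fluorescence (485/525 nm) read 90 s. EC50 from Max−Min change; percent activity relative to GW9508 maximum at 6.7 μM.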

Row | Structure (SMILES) | % Activity (GW9508 Reference Compound) [%]
1 | CC(Cc1ccc(OCc2cc(Cl)cc3c2OC(C)(C)C3)c(F)c1)C(=O)O (centres unmarked) [Example 10, 3-(4-((5-chloro-2,2-dimethyl-2,3-dihydrobenzofuran-7-yl)methoxy)-3-fluorophenyl)-2-methylpropanoic acid] | 106.7955
2 | CC(Cc1ccc(OCc2cc(Cl)cc3c2OC(C)(C)C3)cc1)C(=O)O (centres unmarked) [Example 13] | 119.0442
3 | CC(C)Oc1ccc(Cl)cc1COc1cc2c(cc1F)C(CC(=O)O)CC2 (centres unmarked) [Example 257, 2-(5-((5-chloro-2-isopropoxybenzyl)oxy)-6-fluoro-2,3-dihydro-1H-inden-1-yl)acetic acid] | 124.62
4 | CC(C)Oc1ccc(Cl)cc1COc1ccc2c(c1)CCC2CC(=O)O (centres unmarked) [Example 258, 2-(5-((5-chloro-2-isopropoxybenzyl)oxy)-2,3-dihydro-1H-inden-1-yl)acetic acid] | 139.95
5 | CC(C)Oc1ncccc1COc1ccc2c(c1)CCC2CC(=O)O (centres unmarked) [Example 259, 2-(5-((2-isopropoxypyridin-3-yl)methoxy)-2,3-dihydro-1H-inden-1-yl)acetic acid] | 118.5

Other lines, results leading:

Row | % Activity (GW9508 Reference Compound) [%] | Structure (SMILES)
6 | 16.67 | CC(Cc1cc(F)c(OCc2cccc3cn[nH]c23)c(F)c1)C(=O)O (centres unmarked) [Example 260, 3-(4-((1H-indazol-7-yl)methoxy)-3,5-difluorophenyl)-2-methylpropanoic acid]
7 | 108.78 | Cc1nc2cccc(COc3c(F)cc(CC(C)C(=O)O)cc3F)c2o1 (centres unmarked) [Example 261, 3-(3,5-difluoro-4-((2-methylbenzo[d]oxazol-7-yl)methoxy)phenyl)-2-methylpropanoic acid]
8 | 137.39 | CC1(C)Cc2cc(F)cc(COc3ccc4c(CC(=O)O)coc4c3)c2O1 [Example 262, 2-(6-((5-fluoro-2,2-dimethyl-2,3-dihydrobenzofuran-7-yl)methoxy)benzofuran-3-yl)acetic acid]
9 | 5.98 | CC1(C)Cc2cc(F)cc(COc3ccc4c(CC(=O)O)cc(=O)oc4c3)c2O1 [Example 263, 2-(7-((5-fluoro-2,2-dimethyl-2,3-dihydrobenzofuran-7-yl)methoxy)-2-oxo-2H-chromen-4-yl)acetic acid]
10 | 110.24 | CC(Cc1ccc(OCc2cc(F)cc3c2OC(C)(C)C3)cc1)C(=O)NO (centres unmarked) [Example 264, 3-(4-((5-fluoro-2,2-dimethyl-2,3-dihydrobenzofuran-7-yl)methoxy)phenyl)-N-hydroxy-2-methylpropanamide]
11 | 42.73 | CC(C)C(CC(=O)O)c1ccc(OCc2cc(Cl)cc3c2OC(C)(C)C3)cc1 (centres unmarked) [Example 266, 3-(4-((5-chloro-2,2-dimethyl-2,3-dihydrobenzofuran-7-yl)methoxy)phenyl)-4-methylpentanoic acid]
12 | 140.82 | Cc1c(CCC(=O)O)ccc(OCc2cc(Cl)cc3c2CC(C)(C)O3)c1C [Example 267, 3-(4-((6-chloro-2,2-dimethyl-2,3-dihydrobenzofuran-4-yl)methoxy)-2,3-dimethylphenyl)propanoic acid]

What follows are compounds tested on C57BL/6J mice (assay: Intra peritoneal glucose tolerance test (IPGTT)). Conditions: Mus musculus, 2 h; C57BL/6J mice fasted overnight, compound 30 mg/kg oral gavage at -30 min, 2 g/kg glucose intra peritoneally, incremental AUC 0-120 min vs vehicle; read-out: % reduction IPGTT at 30 mg/kg.
Format: in vivo
Experimental: 8-10 week old male C57BL/6J mice (Harlan) were maintained on regular chow diet from Harlan (2018 Teklad Global). On the day before the experiment mice were fasted overnight, then randomized into groups (n=10-15) to receive the tested GPR120 agonist at doses ranging from 100 mg/kg or the vehicle (1% CMC, 2% TWEEN 80). Compounds were delivered orally via gavage at 10 mL/kg. Blood glucose levels were measured by glucometer (Ascensia Elite XL, Bayer) at time −30 minutes before administration of compound. Blood glucose was measured again after 30 minutes (at time 0), and then the mice were dosed intra peritoneally with 2 g/kg glucose at 10 mL/kg. Blood glucose measurements were taken 20, 40, 60, 90 and 120 minutes after glucose administration, by glucometer (Ascensia Elite XL, Bayer).
Glucose levels were plotted against time, and the incremental area under the curve (AUC) of the glucose excursion was determined from time 0 using Graphpad Prism 5.01. Outliers were excluded using Tukey's box plot outlier test, and statistical significance of differences in AUC of compound treatment compared to vehicle was determined by non-parametric Kruskal-Wallis test with Dunn's post test.
The compounds were tested at 30 mg/kg and the levels of blood glucose were determined in the presence and absence of the tested compounds. The percentage of glucose reduction is reported. […]

Row | Structure (SMILES) | inhibition in vivo at 30 mg/kg [%]
13 | CC(Cc1ccc(OCc2cc(Cl)cc3c2OC(C)(C)C3)c(F)c1)C(=O)O (centres unmarked) [Example 10, 3-(4-((5-chloro-2,2-dimethyl-2,3-dihydrobenzofuran-7-yl)methoxy)-3-fluorophenyl)-2-methylpropanoic acid] | 30.7
14 | CC(Cc1ccc(OCc2cc(Cl)cc3c2OC(C)(C)C3)cc1)C(=O)O (centres unmarked) [Example 13] | 31

From patent US20130109734A1 (Metabolex, Inc., priority 2010, published 2013)
